Test results as given in patent US7781454B2 (priority 2006, dated 2010).
Counter-ions that a name gives are not always drawn. Like-named read-outs stand apart in the source and are kept apart here.

Experiments:
[1] = target: T1, mutant HIV reverse transcriptase (Y181C mutation) (Human immunodeficiency virus type 1 group M subtype B, UniProt P04585, Y768C); test: ECL assay for inhibition of mutant HIV reverse transcriptase (Y181C); type: biochemical
T1 construct: against mutant HIV reverse transcriptase; made in house
Experimental: (§1) 100 μL reaction mixtures were initiated with a combination of primer-template substrate ([…]) and dNTPs (0.6 μM dNTPs, 1.25 μM BrdUTP). The heterodimeric nucleic acid substrate was generated by annealing the DNA primer pD500 (described in Shaw-Reid et al., J. Biol. Chem., 278: 2777-2780; obtained from Integrated DNA Technologies) to t500, a 500 nucleotide RNA template created by in vitro transcription (see Shaw-Reid et al., J. Biol. Chem., 278: 2777-2780). After 1 hour incubation at 37° C., reactions were quenched by 10 μL of 1 N NaOH. Microtiter plates were incubated for an additional 30 minutes at room temperature and then neutralized with 10 μL of 1 N HCl. A mixture of detection buffer containing ruthenylated anti-BrdU antibody and streptavidin coated magnetic beads were added to the plate and incubated at room temperature for 1.5 hours prior to quantification via electrochemiluminescence instrument.
(§2) Analogous assays were conducted substituting mutant HIV strains to determine the in vitro inhibition of compounds of the present invention against mutant HIV reverse transcriptase. In one strain the reverse transcriptase has the Y181C mutation and in the other strain the reverse transcriptase has the K103N mutation. The mutations were generated with the QUIKCHANGE site-directed mutagenesis kit (Stratagene).

[2] = target: T2, mutant HIV reverse transcriptase (K103N mutation) (Human immunodeficiency virus type 1 group M subtype B, UniProt P04585, K690N); test: ECL assay for inhibition of mutant HIV reverse transcriptase (K103N); type: biochemical
T2 construct: against mutant HIV reverse transcriptase; made in house
Experimental: as §1, §2

[3] = target: HIV-1 RT enzyme (wild-type) (Human immunodeficiency virus type 1 group M subtype B, UniProt P04585); test: ECL assay for inhibition of HIV reverse transcriptase (WT); type: biochemical
Experimental: as §1

[4] = test system: HIV strain containing the K103N mutation; test: Spread assay: inhibition of HIV replication (K103N mutant strain); type: cell-based; conditions: Human immunodeficiency virus 1, read-out: Spread (K103N) CIC95
Experimental: (§3) Assays for the inhibition of acute HIV-1 infection of T-lymphoid cells (alternatively referred to herein as the “spread assay”) were conducted in accordance with Vacca, J. P. et al., Proc. Natl. Acad. Sci. USA 1994, 91: 4096. The assays tested for inhibition of wild type HIV-1 and of HIV strains containing the Y181C or K103N mutation. […] The compounds of Examples 1 to 4 had CIC95 values of less than 10 micromolar in the assay employing the K103N mutant strain. […] Table C also reports the CIC95 values of the compounds of Examples 1-7, 9-13 and 15-29 obtained in the assays employing the Y181C mutant strain and the K103N mutant strain.

[5] = test system: HIV strain containing the Y181C mutation; test: Spread assay: inhibition of HIV replication (Y181C mutant strain); type: cell-based; conditions: Human immunodeficiency virus 1, read-out: Spread (Y181C) CIC95
Experimental: as §3

wild type HIV-1 = test: Spread assay: inhibition of acute HIV-1 infection of T-lymphoid cells (WT); type: cell-based; conditions: Human immunodeficiency virus 1, T-lymphoid; wild-type strain; 10% FBS; read-out: Spread (WT) CIC95
Experimental: as §3

[6] = Y181C mutant RT, read-out: ECL Assay (Y181C) IC50
[7] = K103N mutant RT, read-out: ECL Assay (K103N) IC50

Row | Structure (SMILES) | IC50 [1, 6] | IC50 [2, 7] | IC50 [3] | IC95 [4] | IC95 [5] | IC95 (wild type HIV-1) | IC50 [1] | IC50 [2]
1 | N#Cc1cc(Cl)cc(Oc2c(Cl)ccc3c2cnn3Cc2n[nH]c3ncccc23)c1 [Example 1, 3-Chloro-5-{[5-chloro-1-(1H-pyrazolo[3,4-b]pyridin-3-ylmethyl)-1H-indazol-4-yl]oxy}benzonitrile] | 0.0006 µM | 0.00057 µM | 0.00035 µM | 0.017 µM | 0.069 µM | 0.013 µM |  | 
2 | N#Cc1cc(Cl)cc(Oc2c(Cl)ccc3c2c(Cl)nn3Cc2n[nH]c3ncccc23)c1 [Example 2, 3-Chloro-5-{[3,5-dichloro-1-(1H-pyrazolo[3,4-b]pyridin-3-ylmethyl)-1H-indazol-4-yl]oxy}benzonitrile] | 0.025 µM | 0.012 µM | 0.0039 µM | 2.09 µM |  | 0.521 µM |  | 
3 | N#Cc1cc(Cl)cc(Oc2c(Cl)ccc3c2cnn3Cc2n[nH]c3nc(N)ccc23)c1 [Example 3, 3-{[5-Chloro-4-(3-chloro-5-cyanophenoxy)-1H-indazol-1-yl]methyl}-1H-pyrazolo[3,4-b]pyridin-6-aminium chloride] | 0.0019 µM | 0.0017 µM | 0.0006 µM | 0.023 µM | 0.077 µM | 0.009 µM |  | 
4 | N#Cc1cc(Cl)cc(Oc2c(Cl)ccc3c2nnn3Cc2n[nH]c3ncccc23)c1 [Example 4, 3-chloro-5-{[5-chloro-1-(1H-pyrazolo[3,4-b]pyridin-3-ylmethyl)-1H-1,2,3-benzotriazol-4-yl]oxy}benzonitrile] | 0.00044 µM | 0.00041 µM | 0.00024 µM | 0.005 µM | 0.024 µM | 0.004 µM |  | 
5 | N#Cc1cc(Cl)cc(Oc2c(Cl)ccc3c2cnn3Cc2n[nH]c3c2ccc[n+]3[O-])c1 [Example 5, 3-chloro-5-({5-chloro-1-[(7-oxido-1H-pyrazolo[3,4-b]pyridin-3-yl)methyl]-1H-indazol-4-yl}oxy)benzonitrile] | 0.0018 µM | 0.0013 µM | 0.00062 µM | 0.023 µM | 0.105 µM | 0.011 µM |  | 
6 | N#Cc1cc(Cl)cc(Oc2c(Cl)ccc3c2nnn3Cc2n[nH]c3nc(N)ccc23)c1 [Example 6, 3-({1-[(6-amino-1H-pyrazolo[3,4-b]pyridin-3-yl)methyl]-5-chloro-1H-1,2,3-benzotriazol-4-yl}oxy)-5-chlorobenzonitrile] | 0.00082 µM | 0.00053 µM | 0.0004 µM | < 0.004 µM | 0.025 µM | 0.003 µM |  | 
7 | N#Cc1cc(Cl)cc(Oc2c(Cl)ccc3c2ncn3Cc2n[nH]c3ncccc23)c1 [Example 7, 3-chloro-5-{[5-chloro-1-(1H-pyrazolo[3,4-b]pyridin-3-ylmethyl)-1H-benzimidazol-4-yl]oxy}benzonitrile dihydrochloride] |  |  | 0.00092 µM | 0.039 µM | 0.225 µM | 0.028 µM | 0.0017 µM | 0.0041 µM
8 | CN(Cc1ccccc1Cl)C(=O)Cn1nnc2c(Oc3cc(Cl)cc(C#N)c3)c(Cl)ccc21 [Example 9, N-(2-chlorobenzyl)-2-[5-chloro-4-(3-chloro-5-cyanophenoxy)-1H-1,2,3-benzotriazol-1-yl]-N-methylacetamide] | 0.137 µM | 0.074 µM | 0.061 µM | 0.807 µM |  | 0.77 µM |  | 
9 | N#Cc1cc(Cl)cc(Oc2c(Cl)ccc3c2nnn3CC(=O)c2cccnc2)c1 [Example 11, 3-chloro-5-{[5-chloro-1-(2-oxo-2-pyridin-3-ylethyl)-1H-1,2,3-benzotriazol-4-yl]oxy}benzonitrile] | 0.03 µM | 0.052 µM | 0.018 µM | 0.433 µM |  | 0.381 µM |  | 
10 | N#Cc1cc(Cl)cc(Oc2c(Cl)ccc3c2nnn3CC(=O)OCc2ccccc2)c1 [Example 15] | 0.0015 µM | 0.012 µM | 0.0024 µM | > 0.833 µM |  | > 0.833 µM |  | 
11 | N#Cc1cc(Cl)cc(Oc2c(Cl)ccc3c2nnn3CC(=O)N2CCCC(C(N)=O)C2)c1 (centres unmarked) [Example 16, 1-{[5-chloro-4-(3-chloro-5-cyanophenoxy)-1H-1,2,3-benzotriazol-1-yl]acetyl}piperidine-3-carboxamide] | 0.79 µM | > 1.8 µM | 1.1 µM | > 0.833 µM |  | > 0.833 µM |  | 
12 | N#Cc1cc(Cl)cc(Oc2c(Cl)ccc3nn(Cc4n[nH]c5ncccc45)nc23)c1Cl [Example 20, 2,5-dichloro-3-{[5-chloro-2-(1H-pyrazolo[3,4-b]pyridin-3-ylmethyl)-2H-1,2,3-benzotriazol-4-yl]oxy}benzonitrile] | 0.0025 µM | 0.055 µM | 0.0021 µM | > 0.833 µM |  | 0.42 µM |  | 
13 | NCc1cc(Cl)cc(Oc2c(Cl)ccc3c2nnn3Cc2n[nH]c3ncccc23)c1Cl [Example 21, 1-(2,5-dichloro-3-{[5-chloro-1-(1H-pyrazolo[3,4-b]pyridin-3-ylmethyl)-1H-1,2,3-benzotriazol-4-yl]oxy}phenyl)methanamine] |  | 0.0042 µM |  | 0.192 µM | 0.417 µM | 0.058 µM |  | 
14 | N#Cc1cc(Cl)cc(Oc2c(Cl)ccc3c2nnn3Cc2n[nH]c3nc(N)ccc23)c1Cl [Example 22, 3-({1-[(6-amino-1H-pyrazolo[3,4-b]pyridin-3-yl)methyl]-5-chloro-1H-1,2,3-benzotriazol-4-yl}oxy)-2,5-dichlorobenzonitrile] | 0.00079 µM | 0.0008 µM | 0.00052 µM | 0.009 µM |  | 0.004 µM |  | 
15 | N#Cc1cc(Cl)cc(Oc2c(Cl)ccc3c2nnn3Cc2nnc(-c3ccccc3)o2)c1 [Example 23, 3-chloro-5-({5-chloro-1-[(5-phenyl-1,3,4-oxadiazol-2-yl)methyl]-1H-1,2,3-benzotriazol-4-yl}oxy)benzonitrile] | 0.0034 µM | 0.01 µM | 0.0061 µM | > 0.833 µM |  | 0.096 µM |  | 
16 | N#Cc1cc(Cl)cc(Oc2c(Cl)ccc3nn(Cc4nnc(-c5ccccc5)o4)nc23)c1 [Example 24, 3-chloro-5-({5-chloro-2-[(5-phenyl-1,3,4-oxadiazol-2-yl)methyl]-2H-1,2,3-benzotriazol-4-yl}oxy)benzonitrile] | 0.047 µM | 0.15 µM | 0.046 µM | > 0.833 µM |  | > 0.833 µM |  | 
17 | Cc1ccn2c(Cc3n[nH]c4ncccc34)ncc2c1Oc1cc(Cl)cc(C#N)c1 [Example 25, 3-chloro-5-{[7-methyl-3-(1H-pyrazolo[3,4-b]pyridin-3-ylmethyl)imidazo[1,5-a]pyridin-8-yl]oxy}benzonitrile trifluoroacetate] |  |  | 0.02 µM | 0.362 µM |  | 0.115 µM | 0.033 µM | 0.037 µM
18 | Cc1ccn2c(Cc3n[nH]c4ncccc34)nnc2c1Oc1cc(Cl)cc(C#N)c1 [Example 26, 3-chloro-5-{[7-methyl-3-(1H-pyrazolo[3,4-b]pyridin-3-ylmethyl)[1,2,4]triazolo[4,3-a]pyridin-8-yl]oxy}benzonitrile trifluoroacetate] |  |  | 0.22 µM | > 0.833 µM |  | > 0.833 µM | 1.2 µM | 0.82 µM
19 | N#Cc1cc(Cl)cc(Oc2c(Cl)ccc3c2CCCN3Cc2n[nH]c3ncccc23)c1 [Example 27, 3-chloro-5-{[6-chloro-1-(1H-pyrazolo[3,4-b]pyridine-3-ylmethyl)-1,2,3,4-tetrahydroquinolin-5-yl]oxy}benzonitrile] | 0.16 µM | 0.64 µM | 0.16 µM | 7.73 µM |  | 3.28 µM |  | 
20 | N#Cc1cc(Cl)cc(Oc2c(Cl)ccc3c2nnn3CCO)c1 [Example 28, 3-chloro-5-{[5-chloro-1-(2-hydroxyethyl)-1H-1,2,3-benzotriazol-4-yl]oxy}benzonitrile] | 0.077 µM | 0.21 µM | 0.068 µM | > 0.833 µM |  | 0.557 µM |  | 
21 | N#Cc1cc(C#N)cc(Oc2c(Cl)ccc3c2nnn3Cc2n[nH]c3ncccc23)c1 [Example 29, 5-{[5-chloro-1-(1H-pyrazolo[3,4-b]pyridin-3-ylmethyl)-1H-1,2,3-benzotriazol-4-yl]oxy}isophthalonitrile] | 0.0013 µM | 0.0014 µM | 0.0009 µM | 0.0031 µM |  | 0.0025 µM |  | 
